PMC9127185, “A Pyridazinone Compound for Effectively Treating Non-alcoholic Steatohepatitis by Targeting THRβ” (Frontiers in Chemistry, 2022)
Entries after “also recorded” stand apart in the source; their conditions may differ. Where two headings read alike, the source gives them in different places.

Experiments:
Cytotoxicity = format: cell-based; settings: in words, no data shown
[1] = Pharmacokinetic study after oral administration, plasma by UPLC-MS/MS; format: in vivo, C57BL/6J mice; settings: for Cmax / Tmax / CL/F / MRT last / MRT inf / half-life: C57BL/6J, mouse, mice plasma; for CL/F: read-out: CLz/F; for MRT last: read-out: MRT (0-t) (converted); for MRT inf: read-out: MRT (0-∞) (converted); for half-life: read-out: t1/2z
Method: Sorvall Biofuge Stratos high-speed refrigerated centrifuge was bought from the Thermo Fisher Scientific Co. Ltd. (Shanghai, China); EL204 electronic balance was selected from Shanghai Mettler-Toledo Instruments Co. Ltd. (Shanghai, China); IKA Vortex Genius 3 Vortex Mixer was purchased from Aika Instrument Equipment Co. Ltd. (Guangzhou, China); and the test was carried out using an AB SCIEX™ 5500 Q-Trap® mass spectrometer (Applied Biosystems, United States) coupled to a Shimadzu Prominence UPLC (ultra-performance liquid chromatography, Shimadzu, United States) system. It was equipped with a binary pump, a degasser, an auto sampler, and an automatic thermostatic column compartment. The column was utilized from Agela Technologies UHP Innoval C18 (2.1 × 50 mm, 1.9 μm; Agela Technologies; Made in China). The whole process with a gradient elution program is as follows: 0.00–0.50 min, 5% B; 0.50–1.50 min, 90% B; 1.50–3.00 min, 90% B; 3.00–3.10 min, 15% B; and 3.10–5.00 min, 15% B. The mobile phase was made up of 0.10% formic acid in water (A) and acetonitrile (B), and the velocity of flow was 0.50 ml/min. The auto sampler and column temperature were set at 15 and 40°C, respectively. The injection volume was 1 μl. The Q-Trap mass spectrometer was operated with positive electrospray ionization source (ESI) and scanned using the multiple-reaction monitoring (MRM) mode. The Analyst® software version 1.6.3 (Applied Bio-systems, AB SCIEX™, United States) was used to control the UPLC-MS/MS system. The best of the YWS01125 parameters was curtain gas, 35 psi; collision gas, medium; ion spray voltage, 5500 V; temperature, 500°C; ion source gas 1, 50 psi; and ion source gas 2, 50 psi. The quantitative analysis ion pairs of YWS01125 and MGL-3196 (IS) were m/z 446.2 → 375 and m/z 435.2 → 182, individually. The suitable collision energy (CE) of YWS01125 and IS was 42 and 50 eV, respectively, and the decluttering voltage (DP) was 160 and 180 V, respectively.
The frozen mice plasma samples and tissue homogenates were thawed at room temperature, vortexed for 1 min, then taken out in 10-μl aliquots in a 1.50-ml centrifuge tube, and this was then mixed with 1 μl of standard solution and 50 μl of internal standard (IS) solution, which was then dissolved and diluted with acetonitrile. Subsequently, it was vortexed for 3 min and at 14,000 rpm centrifugation for 5 min. The adopted 1 μl of the supernatant was used for sample injection analysis.
A total of 18 C57BL/6J mice were given YWS01125 by oral administration with a dose of 10, 20, and 40 mg/kg, respectively ([Lally et al., 2019]; [Kelly et al., 2014]; [Motamed et al., 2017]) (with the concentration of drug administration selected according to the study by Kelly et al.). The blood samples of 20 μl were collected and placed in heparinized tubes from the ophthalmic venous plexus before and at 0.03, 0.08, 0.16, 0.25, 0.50, 1, 2, 4, 6, 8, 12, and 24 h. The samples were immediately centrifuged at 14,000 rpm for 10 min at 4°C. The plasma was separated and stored below −80°C until UHPLC-MS/MS analysis.
The validated method was applied to the pharmacokinetic study of YWS01125 in normal C57BL/6J mice after oral administration, at doses of 10, 20, and 40 mg/kg suspensions with sodium carboxymethyl cellulose (CMCNa). YWS01125 was measured in the plasma until the last blood collection time (24 h). The main pharmacokinetic parameters of YWS01125 were processed by a no compartmental model using the DAS 2.0 software package, and the pharmacokinetic parameters are summarized in Table 4.

[2] = Stability of liver microsomes study (human); format: in vitro ADME; settings: human liver microsomes 0.50 mg/ml, NADPH-generating system, 37°C, 0-90 min
Method: Hypersil GOLD C18 column (4.6 × 150 mm, 5 μm, Thermo). A 0.025% ammonia aqueous solution in water (solvent A) and acetonitrile (solvent B) were used as mobile phases with gradient elution. The gradient was as follows: 0.01 min, 15% B; 5 min, 20% B; 12 min, 80% B; 16 min, 80% B; 16.01 min, 15% B; 19 min, 15% B; and 19.01 min, stopped. The timing interval was 19 min, and the flow rate was set at 1 ml/min.
The incubation system was carried out in 0.05 M Tris/KCl buffer (PH = 7.4) and included the following: pyrazinone compounds dissolved with dimethyl sulfoxide (DMSO), mouse liver microsomes and human liver microsomes at 0.50 mg/ml, 1.30 mM nicotinamide adenine dinucleotide sodium phosphate (NADP), 3.30 mM glucose-6-phosphate disodium salt (G-6-P), 0.40 units/mL glucose-6-phosphate dehydrogenase (G-6-PDH), and 3.30 mM magnesium chloride. […] After preincubation for 3 min in an 850-rpm blender (37°C), liver microsomes were added to initiate the incubation reaction (37°C). The incubation time was 0, 30, 60, and 90 min. After incubation, an equal volume of cold acetonitrile was added to stop the reaction, and an internal standard (0.05 mg/ml acetaminophen solution) was added. The samples were centrifuged at 10,000 rpm for 10 min to precipitate proteins ([Day et al., 2017]; [Manne et al., 2018]), and the 10 µL of the supernatant was taken for HPLC analysis.

Cmax ([1]; oral 10 mg/kg): 188 ± 30 ng/mL
Tmax ([1]; oral 10 mg/kg): 55 min
CL/F ([1]; oral 10 mg/kg): 160 ± 20 mL/min/kg
MRT last ([1]; oral 10 mg/kg): 3.42 h
MRT inf ([1]; oral 10 mg/kg): 4.04 h
half-life ([1]; oral 10 mg/kg): 189 ± 95.3 min
Cmax ([1]; oral 20 mg/kg): 293 ± 60.4 ng/mL
Tmax ([1]; oral 20 mg/kg): 60 min
CL/F ([1]; oral 20 mg/kg): 250 ± 280 mL/min/kg
MRT last ([1]; oral 20 mg/kg): 3.06 h
MRT inf ([1]; oral 20 mg/kg): 3.4 h
half-life ([1]; oral 20 mg/kg): 153 ± 38 min
Cmax ([1]; oral 40 mg/kg): 382 ± 30.6 ng/mL
Tmax ([1]; oral 40 mg/kg): 55 min
CL/F ([1]; oral 40 mg/kg): 280 ± 50 mL/min/kg
MRT last ([1]; oral 40 mg/kg): 4.57 h
MRT inf ([1]; oral 40 mg/kg): 4.94 h
half-life ([1]; oral 40 mg/kg): 182 ± 64.2 min
Time of highest concentration in the blood ([1]; mice, oral): 1 h
Metabolic stability / metabolite formation in liver microsomes [2]: no metabolites; also recorded: stable
Structure (SMILES): N#Cc1cn(-c2cc(Cl)c(Oc3cc(C4CCC4)c(=O)[nH]n3)c(Cl)c2)c(=O)[nH]c1=O [YWS01125, 1-(3,5-dichloro-4-((5-cyclobutyl-6-oxo-1,6-dihydropyridazin-3-yl)oxy)phenyl)-2,4-dioxo-1,2,3,4-tetrahydropyrimidine-5-carbonitrile]
Cytotoxicity (Cytotoxicity): low cytotoxicity
